{"source": "paper PMC12090182", "about": "“Repurposing of the RIPK1-Selective Benzo[1,4]oxazepin-4-one Scaffold for the Development of a Type III LIMK1/2 Inhibitor” (ACS Chemical Biology, 2025)", "assay_in_all_cases": "biochemical", "type_in_all_cases": "binding", "key": {"[1]": {"biological_target": "468 kinases including some pathogenic mutants (Homo sapiens, UniProt Q05397)", "details": "FAK (Entrez PTK2), 100 nM; read-out: Percent Control"}, "[2]": {"biological_target": "468 kinases including some pathogenic mutants (Homo sapiens, UniProt Q02750)", "details": "MEK1 (Entrez MAP2K1), 1000 nM; read-out: Percent Control"}, "[3]": {"biological_target": "468 kinases including some pathogenic mutants (Homo sapiens, UniProt P36888, D835V)", "details": "read-out: Percent Control"}, "[4]": {"biological_target": "468 kinases including some pathogenic mutants (Homo sapiens, UniProt P24941)", "details": "CDK2 (Entrez CDK2), 100 nM; read-out: Percent Control"}, "[5]": {"biological_target": "468 kinases including some pathogenic mutants (Homo sapiens, UniProt P29376)", "details": "LTK (Entrez LTK), 100 nM; read-out: Percent Control"}, "[6]": {"biological_target": "468 kinases including some pathogenic mutants (Homo sapiens, UniProt Q9UL54)", "details": "TAOK2 (Entrez TAOK2), 100 nM; read-out: Percent Control"}, "[7]": {"biological_target": "468 kinases including some pathogenic mutants (Homo sapiens, UniProt P36888, D835Y)", "details": "read-out: Percent Control"}, "[8]": {"biological_target": "468 kinases including some pathogenic mutants (Homo sapiens, UniProt P35626)", "sequence (P35626 whole entry, change not shown)": "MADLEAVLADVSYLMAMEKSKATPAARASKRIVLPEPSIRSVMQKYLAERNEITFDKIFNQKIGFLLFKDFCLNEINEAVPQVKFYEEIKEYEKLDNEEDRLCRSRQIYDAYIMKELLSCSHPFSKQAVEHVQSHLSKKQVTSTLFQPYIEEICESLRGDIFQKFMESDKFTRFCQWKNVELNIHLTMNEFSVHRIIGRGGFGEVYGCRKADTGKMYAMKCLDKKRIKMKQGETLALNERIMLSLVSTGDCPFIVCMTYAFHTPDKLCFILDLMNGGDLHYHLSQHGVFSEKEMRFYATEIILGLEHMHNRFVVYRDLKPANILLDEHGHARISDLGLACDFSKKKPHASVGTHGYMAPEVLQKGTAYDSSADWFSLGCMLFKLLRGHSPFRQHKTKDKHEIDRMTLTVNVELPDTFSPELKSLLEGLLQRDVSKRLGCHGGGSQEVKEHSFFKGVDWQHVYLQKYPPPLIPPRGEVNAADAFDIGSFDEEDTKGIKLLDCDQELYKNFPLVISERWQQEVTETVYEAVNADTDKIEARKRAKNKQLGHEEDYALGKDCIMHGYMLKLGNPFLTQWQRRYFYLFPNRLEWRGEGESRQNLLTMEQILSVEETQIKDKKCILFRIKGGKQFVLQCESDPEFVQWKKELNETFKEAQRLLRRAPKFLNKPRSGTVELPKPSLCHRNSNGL", "details": "GRK3 (Entrez ADRBK2), 100 nM; read-out: Percent Control"}, "[9]": {"biological_target": "468 kinases including some pathogenic mutants (Homo sapiens, UniProt Q9H3Y6)", "details": "SRMS (Entrez SRMS), 1000 nM; read-out: Percent Control"}, "[10]": {"biological_target": "468 kinases including some pathogenic mutants (Homo sapiens, UniProt Q2M2I8)", "details": "AAK1 (Entrez AAK1), 100 nM; read-out: Percent Control"}, "[11]": {"biological_target": "468 kinases including some pathogenic mutants (Homo sapiens, UniProt P29323)", "details": "EPHB2 (Entrez EPHB2), 100 nM; read-out: Percent Control"}, "[12]": {"biological_target": "468 kinases including some pathogenic mutants (Homo sapiens, UniProt Q8TDR2)", "details": "STK35 (Entrez STK35), 1000 nM; read-out: Percent Control"}, "[13]": {"biological_target": "468 kinases including some pathogenic mutants (Homo sapiens, UniProt Q8TDC3)", "details": "BRSK1 (Entrez BRSK1), 100 nM; read-out: Percent Control"}, "[14]": {"biological_target": "468 kinases including some pathogenic mutants (Homo sapiens, UniProt Q9UM73, L1196M)", "details": "read-out: Percent Control"}, "[15]": {"biological_target": "468 kinases including some pathogenic mutants (Homo sapiens, UniProt P08631)", "details": "HCK (Entrez HCK), 100 nM; read-out: Percent Control"}, "[16]": {"biological_target": "468 kinases including some pathogenic mutants (Homo sapiens, UniProt Q9H2K8)", "sequence (Q9H2K8 whole entry, change not shown)": "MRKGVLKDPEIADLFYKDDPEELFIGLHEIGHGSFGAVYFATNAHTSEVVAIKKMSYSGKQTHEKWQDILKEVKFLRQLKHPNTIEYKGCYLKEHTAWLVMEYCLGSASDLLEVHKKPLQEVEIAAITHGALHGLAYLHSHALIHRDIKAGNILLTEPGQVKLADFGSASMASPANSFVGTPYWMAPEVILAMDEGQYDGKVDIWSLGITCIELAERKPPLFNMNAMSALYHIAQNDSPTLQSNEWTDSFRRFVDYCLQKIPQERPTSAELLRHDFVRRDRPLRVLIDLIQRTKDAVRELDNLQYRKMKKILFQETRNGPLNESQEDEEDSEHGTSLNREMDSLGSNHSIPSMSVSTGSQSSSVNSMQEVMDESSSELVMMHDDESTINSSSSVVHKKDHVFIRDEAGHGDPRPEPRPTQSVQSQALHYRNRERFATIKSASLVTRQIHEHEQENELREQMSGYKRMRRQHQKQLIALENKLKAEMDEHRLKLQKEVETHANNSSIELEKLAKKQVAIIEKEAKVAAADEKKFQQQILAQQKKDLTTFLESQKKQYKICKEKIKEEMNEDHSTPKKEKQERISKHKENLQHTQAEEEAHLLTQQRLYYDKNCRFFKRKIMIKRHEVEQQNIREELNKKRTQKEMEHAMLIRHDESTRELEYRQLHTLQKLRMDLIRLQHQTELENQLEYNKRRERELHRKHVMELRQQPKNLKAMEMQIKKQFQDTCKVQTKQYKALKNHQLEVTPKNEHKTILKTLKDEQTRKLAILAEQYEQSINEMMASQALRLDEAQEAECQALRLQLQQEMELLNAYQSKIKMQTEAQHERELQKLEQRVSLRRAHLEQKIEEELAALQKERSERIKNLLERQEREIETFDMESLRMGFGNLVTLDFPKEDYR", "details": "TAOK3 (Entrez TAOK3), 100 nM; read-out: Percent Control"}, "[17]": {"biological_target": "468 kinases including some pathogenic mutants (Homo sapiens, UniProt Q6P3R8)", "sequence (Q6P3R8 whole entry, change not shown)": "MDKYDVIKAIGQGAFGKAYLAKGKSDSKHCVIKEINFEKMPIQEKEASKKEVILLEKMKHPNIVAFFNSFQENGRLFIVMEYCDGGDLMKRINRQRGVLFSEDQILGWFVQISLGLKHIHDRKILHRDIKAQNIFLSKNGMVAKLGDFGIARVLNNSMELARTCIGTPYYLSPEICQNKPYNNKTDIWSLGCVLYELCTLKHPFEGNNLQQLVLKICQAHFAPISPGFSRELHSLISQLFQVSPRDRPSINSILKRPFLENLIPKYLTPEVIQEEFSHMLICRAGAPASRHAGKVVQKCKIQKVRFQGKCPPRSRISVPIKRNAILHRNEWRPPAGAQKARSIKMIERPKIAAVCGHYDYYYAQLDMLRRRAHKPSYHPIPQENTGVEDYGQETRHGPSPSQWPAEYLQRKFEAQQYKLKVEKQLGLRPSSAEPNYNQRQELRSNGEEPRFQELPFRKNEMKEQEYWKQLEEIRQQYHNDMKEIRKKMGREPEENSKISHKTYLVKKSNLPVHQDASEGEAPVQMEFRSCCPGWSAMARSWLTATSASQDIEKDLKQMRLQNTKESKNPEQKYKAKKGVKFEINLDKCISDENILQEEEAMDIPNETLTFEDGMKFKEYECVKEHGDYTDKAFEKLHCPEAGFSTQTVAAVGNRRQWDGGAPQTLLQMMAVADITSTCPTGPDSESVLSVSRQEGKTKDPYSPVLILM", "details": "NEK5 (Entrez NEK5), 100 nM; read-out: Percent Control"}, "[18]": {"biological_target": "468 kinases including some pathogenic mutants (Homo sapiens, UniProt Q9BUB5)", "details": "MKNK1 (Entrez MKNK1), 100 nM; read-out: Percent Control"}, "[19]": {"biological_target": "468 kinases including some pathogenic mutants (Homo sapiens, UniProt P41743)", "details": "PRKCI (Entrez PRKCI), 100 nM; read-out: Percent Control"}, "[20]": {"biological_target": "468 kinases including some pathogenic mutants (Homo sapiens, UniProt P19784)", "details": "CSNK2A2 (Entrez CSNK2A2), 100 nM; read-out: Percent Control"}, "[21]": {"biological_target": "468 kinases including some pathogenic mutants (Homo sapiens, UniProt Q9BVS4)", "details": "RIOK2 (Entrez RIOK2), 1000 nM; read-out: Percent Control"}, "[22]": {"biological_target": "468 kinases including some pathogenic mutants (Homo sapiens, UniProt Q8NE63)", "details": "HIPK4 (Entrez HIPK4), 100 nM; read-out: Percent Control"}, "[23]": {"biological_target": "468 kinases including some pathogenic mutants (Homo sapiens, UniProt Q8NEB9)", "sequence (Q8NEB9 whole entry, change not shown)": "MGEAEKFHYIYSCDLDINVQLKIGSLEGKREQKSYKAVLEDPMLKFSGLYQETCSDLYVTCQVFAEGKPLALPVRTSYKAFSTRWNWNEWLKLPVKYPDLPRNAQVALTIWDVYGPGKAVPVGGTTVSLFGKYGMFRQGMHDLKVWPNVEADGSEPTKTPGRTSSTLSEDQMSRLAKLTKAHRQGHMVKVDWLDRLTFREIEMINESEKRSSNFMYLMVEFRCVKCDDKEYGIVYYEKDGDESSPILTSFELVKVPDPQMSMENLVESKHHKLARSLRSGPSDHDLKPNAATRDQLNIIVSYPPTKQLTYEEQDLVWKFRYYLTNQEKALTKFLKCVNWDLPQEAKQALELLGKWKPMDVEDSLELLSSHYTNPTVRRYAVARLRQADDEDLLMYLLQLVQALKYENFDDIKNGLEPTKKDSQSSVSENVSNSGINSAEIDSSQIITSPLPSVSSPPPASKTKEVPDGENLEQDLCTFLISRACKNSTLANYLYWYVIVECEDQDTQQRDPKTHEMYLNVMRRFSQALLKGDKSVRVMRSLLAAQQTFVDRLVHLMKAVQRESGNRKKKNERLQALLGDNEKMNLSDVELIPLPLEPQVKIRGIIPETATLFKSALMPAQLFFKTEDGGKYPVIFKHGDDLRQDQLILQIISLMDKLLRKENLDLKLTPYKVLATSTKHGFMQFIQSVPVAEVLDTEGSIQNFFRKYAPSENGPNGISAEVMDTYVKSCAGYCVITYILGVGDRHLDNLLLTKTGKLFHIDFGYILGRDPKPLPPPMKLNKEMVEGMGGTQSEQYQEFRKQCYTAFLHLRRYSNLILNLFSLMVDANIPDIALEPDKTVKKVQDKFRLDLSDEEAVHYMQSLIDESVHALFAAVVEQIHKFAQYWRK", "details": "VPS34 (Entrez PIK3C3), 1000 nM; read-out: Percent Control"}, "[24]": {"biological_target": "468 kinases including some pathogenic mutants (Homo sapiens, UniProt Q13131)", "details": "AMPK-alpha1 (Entrez PRKAA1), 100 nM; read-out: Percent Control"}, "[25]": {"biological_target": "468 kinases including some pathogenic mutants (Homo sapiens, UniProt Q8IYT8)", "sequence (Q8IYT8 whole entry, change not shown)": "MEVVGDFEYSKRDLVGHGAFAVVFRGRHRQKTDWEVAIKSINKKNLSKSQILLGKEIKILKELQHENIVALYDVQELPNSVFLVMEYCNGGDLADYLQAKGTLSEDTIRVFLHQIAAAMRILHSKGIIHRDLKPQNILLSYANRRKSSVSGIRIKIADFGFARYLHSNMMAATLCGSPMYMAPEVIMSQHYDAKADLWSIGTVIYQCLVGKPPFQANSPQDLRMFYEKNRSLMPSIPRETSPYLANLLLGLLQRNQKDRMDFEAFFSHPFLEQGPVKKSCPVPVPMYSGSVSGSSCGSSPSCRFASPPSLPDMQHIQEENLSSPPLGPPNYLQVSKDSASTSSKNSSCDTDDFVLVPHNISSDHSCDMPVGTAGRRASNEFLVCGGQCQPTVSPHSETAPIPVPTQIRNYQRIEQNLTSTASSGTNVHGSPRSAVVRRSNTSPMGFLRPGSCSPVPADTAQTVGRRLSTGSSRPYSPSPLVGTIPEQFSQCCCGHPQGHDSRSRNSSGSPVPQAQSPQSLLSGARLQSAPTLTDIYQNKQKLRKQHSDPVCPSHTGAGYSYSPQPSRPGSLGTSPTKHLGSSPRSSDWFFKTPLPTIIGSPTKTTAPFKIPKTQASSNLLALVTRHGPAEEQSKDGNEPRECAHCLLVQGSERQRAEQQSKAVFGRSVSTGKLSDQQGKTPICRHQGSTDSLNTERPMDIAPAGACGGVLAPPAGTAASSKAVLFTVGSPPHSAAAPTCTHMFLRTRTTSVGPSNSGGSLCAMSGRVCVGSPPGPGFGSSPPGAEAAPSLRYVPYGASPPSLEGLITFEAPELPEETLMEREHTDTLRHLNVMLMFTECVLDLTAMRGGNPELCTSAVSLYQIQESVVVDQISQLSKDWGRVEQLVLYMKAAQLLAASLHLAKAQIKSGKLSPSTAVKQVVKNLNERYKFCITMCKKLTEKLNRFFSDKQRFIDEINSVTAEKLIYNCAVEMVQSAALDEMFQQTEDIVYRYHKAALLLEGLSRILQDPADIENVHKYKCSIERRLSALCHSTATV", "details": "ULK2 (Entrez ULK2), 1000 nM; read-out: Percent Control"}, "[26]": {"biological_target": "468 kinases including some pathogenic mutants (Homo sapiens, UniProt Q9UK32)", "sequence (Q9UK32 whole entry, change not shown)": "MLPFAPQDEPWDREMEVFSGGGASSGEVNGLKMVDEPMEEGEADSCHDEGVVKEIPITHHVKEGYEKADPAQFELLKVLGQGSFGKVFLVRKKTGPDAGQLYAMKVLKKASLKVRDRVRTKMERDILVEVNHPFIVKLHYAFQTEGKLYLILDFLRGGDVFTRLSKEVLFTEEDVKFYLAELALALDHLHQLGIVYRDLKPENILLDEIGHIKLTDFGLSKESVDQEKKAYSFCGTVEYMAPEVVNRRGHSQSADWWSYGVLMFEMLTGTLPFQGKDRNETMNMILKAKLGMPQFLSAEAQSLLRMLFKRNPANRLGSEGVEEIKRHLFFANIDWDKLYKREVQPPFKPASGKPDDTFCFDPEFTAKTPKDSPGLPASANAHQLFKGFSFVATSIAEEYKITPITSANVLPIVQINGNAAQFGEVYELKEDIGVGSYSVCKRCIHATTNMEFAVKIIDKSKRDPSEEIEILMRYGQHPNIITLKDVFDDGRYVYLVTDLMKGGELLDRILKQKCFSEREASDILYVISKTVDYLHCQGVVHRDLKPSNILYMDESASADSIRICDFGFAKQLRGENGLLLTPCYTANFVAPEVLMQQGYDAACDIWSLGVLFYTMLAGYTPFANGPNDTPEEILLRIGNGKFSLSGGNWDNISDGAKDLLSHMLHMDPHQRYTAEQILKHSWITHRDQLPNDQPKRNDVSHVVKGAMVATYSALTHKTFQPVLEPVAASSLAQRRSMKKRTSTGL", "details": "read-out: Percent Control"}, "[27]": {"biological_target": "468 kinases including some pathogenic mutants (Homo sapiens, UniProt O94806)", "details": "PRKD3 (Entrez PRKD3), 100 nM; read-out: Percent Control"}, "[28]": {"biological_target": "468 kinases including some pathogenic mutants (Homo sapiens, UniProt P00533, DEL746-750)", "details": "read-out: Percent Control"}, "[29]": {"biological_target": "468 kinases including some pathogenic mutants (Homo sapiens, UniProt Q15139)", "details": "PRKD1 (Entrez PRKD1), 100 nM; read-out: Percent Control"}}, "data": [{"smiles": "CN1C(=O)[C@@H](N2CCc3c(nn(Cc4ccccc4)c3C(N)=O)C2=O)COc2cc(Cl)ccc21", "note": "[Compound 10, (S)-2-benzyl-6-(8-chloro-5-methyl-4-oxo-2,3,4,5-tetrahydrobenzo[b][1,4]oxazepin-3-yl)-7-oxo-4,5,6,7-tetrahydro-2H-pyrazolo[3,4-c]pyridine-3-carboxamide]", "values": [{"measurement": "remaining activity at 0.1 µM", "setting": "[1]", "result": 82, "unit": "%"}, {"measurement": "remaining activity at 1 µM", "setting": "[2]", "result": 100, "unit": "%"}, {"measurement": "remaining activity at 0.1 µM", "setting": "[3]", "result": 88, "unit": "%"}, {"measurement": "remaining activity at 0.1 µM", "setting": "[4]", "result": 83, "unit": "%"}, {"measurement": "remaining activity at 0.1 µM", "setting": "[5]", "result": 54, "unit": "%"}, {"measurement": "remaining activity at 0.1 µM", "setting": "[6]", "result": 100, "unit": "%"}, {"measurement": "remaining activity at 0.1 µM", "setting": "[7]", "result": 95, "unit": "%"}, {"measurement": "remaining activity at 0.1 µM", "setting": "[8]", "result": 98, "unit": "%"}, {"measurement": "remaining activity at 1 µM", "setting": "[9]", "result": 100, "unit": "%"}, {"measurement": "remaining activity at 0.1 µM", "setting": "[10]", "result": 72, "unit": "%"}, {"measurement": "remaining activity at 0.1 µM", "setting": "[11]", "result": 98, "unit": "%"}, {"measurement": "remaining activity at 1 µM", "setting": "[12]", "result": 100, "unit": "%"}, {"measurement": "remaining activity at 0.1 µM", "setting": "[13]", "result": 91, "unit": "%"}, {"measurement": "remaining activity at 0.1 µM", "setting": "[14]", "result": 89, "unit": "%"}, {"measurement": "remaining activity at 0.1 µM", "setting": "[15]", "result": 61, "unit": "%"}, {"measurement": "remaining activity at 0.1 µM", "setting": "[16]", "result": 71, "unit": "%"}, {"measurement": "remaining activity at 0.1 µM", "setting": "[17]", "result": 87, "unit": "%"}, {"measurement": "remaining activity at 0.1 µM", "setting": "[18]", "result": 85, "unit": "%"}, {"measurement": "remaining activity at 0.1 µM", "setting": "[19]", "result": 81, "unit": "%"}, {"measurement": "remaining activity at 0.1 µM", "setting": "[20]", "result": 74, "unit": "%"}, {"measurement": "remaining activity at 1 µM", "setting": "[21]", "result": 100, "unit": "%"}, {"measurement": "remaining activity at 0.1 µM", "setting": "[22]", "result": 73, "unit": "%"}, {"measurement": "remaining activity at 1 µM", "setting": "[23]", "result": 100, "unit": "%"}, {"measurement": "remaining activity at 0.1 µM", "setting": "[24]", "result": 65, "unit": "%"}, {"measurement": "remaining activity at 1 µM", "setting": "[25]", "result": 100, "unit": "%"}, {"measurement": "remaining activity at 1 µM", "setting": "[26]; RSK4(Kin.Dom.1-N-terminal) (Entrez RPS6KA6), 1000 nM", "result": 100, "unit": "%"}, {"measurement": "remaining activity at 0.1 µM", "setting": "[26]; RSK4(Kin.Dom.2-C-terminal) (Entrez RPS6KA6), 100 nM", "result": 90, "unit": "%"}, {"measurement": "remaining activity at 0.1 µM", "setting": "[27]", "result": 76, "unit": "%"}, {"measurement": "remaining activity at 0.1 µM", "setting": "[28]", "result": 78, "unit": "%"}, {"measurement": "remaining activity at 0.1 µM", "setting": "[29]", "result": 65, "unit": "%"}]}]}
